Values after ≈ are worked out from the molar mass of the structure shown.
Columns and labels:
[1] = system: MDR-EAEC isolate KY941937.1 (MDR 2); test: In vitro antibiotic susceptibility testing; format: cell-based, enteroaggregative Escherichia coli; set-up: key to Antibiotic Susceptibility testing / MIC Values, class symbol: S – Sensitive; R- Resistant; details: for Antibiotic Susceptibility testing: CLSI 2018; for MIC: numeric cells; for MIC Values, class symbol: cells printed as S
Excerpt: (§1) The typical EAEC strains, isolated from the fecal samples of human infants with GenBank accession numbers, KY941936.1 (MDR 1); KY941937.1 (MDR 2); and KY941938.1 (MDR 3), available at Division of Veterinary Public Health, Indian Veterinary Research Institute, Bareilly were re-validated as described earlier ([Vijay et al., 2015]) and tested for antibiotic susceptibility ([Clinical and Laboratory Standards Institute [CLSI], 2018]). E. coli ATCC 25922 used as quality control strain was provided by the Department of Veterinary Public Health, College of Veterinary and Animal Sciences, Pookode, India. These bacterial strains were grown on nutrient agar medium at 37°C.

[2] = system: MDR-EAEC isolate KY941936.1 (MDR 1); test: In vitro antibiotic susceptibility testing; format: cell-based, enteroaggregative Escherichia coli; set-up: key to Antibiotic Susceptibility testing / MIC Values, class symbol: S – Sensitive; R- Resistant; details: for Antibiotic Susceptibility testing: CLSI 2018; for MIC Values, class symbol: cells printed as S; for MIC: numeric cells
Excerpt: as §1

[3] = system: MDR-EAEC isolate KY941938.1 (MDR 3); test: In vitro antibiotic susceptibility testing; format: cell-based, enteroaggregative Escherichia coli; set-up: key to Antibiotic Susceptibility testing / MIC Values, class symbol: S – Sensitive; R- Resistant; details: for Antibiotic Susceptibility testing: CLSI 2018; for MIC: numeric cells; for MIC Values, class symbol: cells printed as S
Excerpt: as §1

[4] = system: MDR-EAEC strains; test: Survival of MDR-EAEC infected G. mellonella larvae; format: in vivo, Galleria mellonella; details: larvae infected with LD50 dose (10^6 CFU) MDR-EAEC cocktail, treated 3 h pi with MIC dose (10 μL); upto 120 h pi; n = 40 larvae per group
Description: In vivo assays were performed using the final instar of G. mellonella larvae that were stored in wood shavings at 15°C in the dark prior to the experiment ([Morgan et al., 2014]). The larvae were kept in a germ-free environment and were provided with ad libitum food during the course of experiment. Initially, LD50 dose of each MDR-EAEC strains was determined in G. mellonella larvae, and the validated LD50 dose was used further in the in vivo studies to evaluate the antibacterial effect of Indolicidin (Supplementary File S9) by injection with a Hamilton syringe (26 gage) via the last right pro-leg.
(§2) Galleria mellonella larvae (n = 40 larvae per group) were grouped as follows: Group I (infected group), Groups II and III (infection + treatment groups), Group IV (PBS control), and Group V (AMP control). Larvae from groups I to III were infected with cocktail of MDR-EAEC strains (LD50 dose; 10 μL); groups II and III were administered 3 h post-infection (pi) with MIC dose (10 μL) of Indolicidin and Meropenem, respectively; Group IV were injected with sterile PBS whereas, group V was administered with MIC dose of Indolicidin.

[5] = system: MDR-EAEC isolates; test: In vitro dose- and time-dependent killing kinetics; format: cell-based, enteroaggregative Escherichia coli; details: Meropenem 10 μg/ml
Description: The in vitro growth kinetics of MDR-EAEC isolates was evaluated by incubating the log-phase bacterial cultures of each MDR-EAEC isolate (ca. 1 × 10^7 CFU/mL) in CA-MH broth with MIC (1X and 2X) concentrations of Indolicidin, in triplicates (Supplementary File S8). The desired bacterial numbers for each MDR-EAEC isolate and Indolicidin were suspended in CA-MH broth as follows: Group I, 10^7 CFU of MDR-EAEC (50 μL) with 1X MIC Indolicidin (50 μL); Group II, 10^7 CFU of MDR- EAEC (50 μL) with MBC Indolicidin (50 μL); Group III, 10^7 CFU of MDR- EAEC (50 μL) with Meropenem (10 μg/ml; 50 μL); Group IV, 10^7 CFU of MDR- EAEC (50 μL) with CA-MH broth (50 μL) and Group V, 10^7 CFU of MDR- EAEC (50 μL) with 4X MIC Indolicidin (50 μL). To enumerate the antibacterial effect of Indolicidin on MDR-EAEC isolates, an aliquot at 10 μL from all the five groups were drawn at 0, 30, 60, 90, 120, 150, 180 min, 24, 48, and 72 h. These aliquots were serially diluted 10-fold in normal saline solution (prepared using 0.90% of sodium chloride, HiMedia Laboratories); the last three dilutions placed on EMB agar plates containing 100 μg of ampicillin ([Miles et al., 1938]) were counted after 24 h of incubation at 37°C, and the bacterial counts were expressed as log10CFU/mL. […]

[6] = system: G. mellonella larvae; test: Melanization assay in G. mellonella larvae; format: in vivo, Galleria mellonella; details: infected larvae treated 3 h pi; absorbance 450 nm of hemolymph, 6 to 96 h pi
Description: as §2
For determination of the melanin production, an immune marker, the G. mellonella (n=3 larvae per group) were investigated at an interval of 6 h pi for 24 h, followed by 24 h interval till 96 h. An aliquot of the pooled haemolymph (100 µl) was transferred into 96-well microtiter plate for measuring the optical density (OD) at a wavelength of 450 nm using ELISA plate reader (Thermo Scientific Multiskan GO) with OD values of haemolymph collected from apparently healthy un-inoculated larvae as the background control.

## CO/N=C(\C(=O)N[C@@H]1C(=O)N2C(C(=O)O)=C(CSc3nc(=O)c(=O)[nH]n3C)CS[C@H]12)c1csc(N)n1 [CTR, Ceftriaxone]
[1]
  Antibiotic Susceptibility testing: R
[1]; Escherichia coli
  MIC: > 240 µM
[2]
  Antibiotic Susceptibility testing: S
  MIC Values, class symbol: S
[3]
  Antibiotic Susceptibility testing: R
[3]; Escherichia coli
  MIC: > 240 µM

## O=C(O)c1cn(C2CC2)c2cc(N3CCNCC3)c(F)cc2c1=O [CIP, Ciprofloxacin]
[1]; Escherichia coli
  MIC: 120 µM (≈ 39.8 µg/mL)
[3]; Escherichia coli
  MIC: 60 µM (≈ 19.9 µg/mL)

## C[C@@H](O)[C@H]1C(=O)N2C(C(=O)O)=C(SCCN=CN)C[C@H]12 [IMI, Imipenem]
[1]
  Antibiotic Susceptibility testing: S
  MIC Values, class symbol: S
[2]
  Antibiotic Susceptibility testing: S
  MIC Values, class symbol: S
[3]
  Antibiotic Susceptibility testing: S
  MIC Values, class symbol: S

## CC1(C)S[C@@H]2[C@H](NC(=O)[C@H](N)c3ccccc3)C(=O)N2[C@H]1C(=O)O [AMP, Ampicillin]
[1]
  Antibiotic Susceptibility testing: R
[1]; Escherichia coli
  MIC: > 240 µM
[2]
  Antibiotic Susceptibility testing: R
[2]; Escherichia coli
  MIC: > 240 µM
[3]
  Antibiotic Susceptibility testing: R
[3]; Escherichia coli
  MIC: > 240 µM

## Colistin sulphate
[1]
  Antibiotic Susceptibility testing: S
  MIC Values, class symbol: S
[2]
  Antibiotic Susceptibility testing: S
  MIC Values, class symbol: S
[3]
  Antibiotic Susceptibility testing: S
  MIC Values, class symbol: S

## Cc1cc(NS(=O)(=O)c2ccc(N)cc2)no1 [SXT, Sulfamethoxazole]
[1]
  Antibiotic Susceptibility testing: S
[2]
  Antibiotic Susceptibility testing: R
[3]
  Antibiotic Susceptibility testing: R

## CN(C)[C@@H]1C(O)=C(C(N)=O)C(=O)[C@@]2(O)C(O)=C3C(=O)c4c(O)cccc4[C@@](C)(O)[C@H]3C[C@@H]12 [TE, Tetracycline]
[1]
  Antibiotic Susceptibility testing: R
[1]; Escherichia coli
  MIC: 2 µM (≈ 0.889 µg/mL)
[2]
  Antibiotic Susceptibility testing: R
[2]; Escherichia coli
  MIC: 60 µM (≈ 26.7 µg/mL)
[3]
  Antibiotic Susceptibility testing: R
[3]; Escherichia coli
  MIC: 30 µM (≈ 13.3 µg/mL)

## C[C@@H](O)[C@H]1C(=O)N2C(C(=O)O)=C(S[C@@H]3CN[C@H](C(=O)N(C)C)C3)[C@H](C)[C@H]12 [Meropenem]
[4]
  survival rate: 85%
[5]
  time to similar inhibition (complete elimination) in time-kill kinetic assay: 60 min
[6]
  melanization: the melanization was lower at 6 h pi, reached its peak at 18 h pi and thereafter gradually declined

## O=C(N[C@H](CO)[C@H](O)c1ccc([N+](=O)[O-])cc1)C(Cl)Cl [CL, Chloramphenicol]
[1]
  Antibiotic Susceptibility testing: S
  MIC Values, class symbol: S
[2]
  Antibiotic Susceptibility testing: S
  MIC Values, class symbol: S
[3]
  Antibiotic Susceptibility testing: S
  MIC Values, class symbol: S

## Co-trimoxazole [COT]
[1]
  Antibiotic Susceptibility testing: R
  MIC: >240 µM
[2]
  Antibiotic Susceptibility testing: R
  MIC: >240 µM
[3]
  Antibiotic Susceptibility testing: R
  MIC: >240 µM

## CNC(C)C1CCC(N)C(OC2C(N)CC(N)C(OC3OCC(C)(O)C(NC)C3O)C2O)O1 (centres unmarked) [GEN, Gentamicin]
[1]
  Antibiotic Susceptibility testing: S
  MIC Values, class symbol: S
[2]
  Antibiotic Susceptibility testing: S
  MIC Values, class symbol: S
[3]
  Antibiotic Susceptibility testing: S
  MIC Values, class symbol: S
